Eleven compounds from ChEMBL document CHEMBL1201862, “PubChem BioAssay data set” (2004) can be followed below.

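Interpolation was linear, between the two tested concentrations surrounding the appropriate level; five concentrations were tested over 48 hours in 96-well plates. GI50: concentration for 50% inhibition of growth.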 Calls of active or inactive are those of the source. No stated cut-off is given here; in the data, active = GI50 up to about 1.1 µM and inactive = higher.

Common to all, as to experiment: growth of human tumour cells (NCI), 48 h
Test [1] deals with A549.
The test system of test [2] is CCRF-CEM.
Test [3] concerns EKVX.
The subject of test [4] is HCC 2998.
The subject of test [5] is HL-60.
The subject of test [6] is HOP-92.
Test [7] has as its system HT-29.
For test [8], the system named is IGROV-1.
Test [9] deals with LOX IMVI.
Test [10] has as its system MDA-MB-231.
Test [11] has as its system MOLT-4.
Test [12] relates to NCI-H460.
For test [13], the system named is SF-539.
Test [14] concerns SK-MEL-2.
The subject of test [15] is SK-OV-3.
Test [16] relates to SN12C.
Test [17] has as its system SR.
The test system of test [18] is UACC-62.

On to `COc1ccc(/C=C2/C(=O)C(c3ccccc3)N(c3ccccc3)C2=O)cc1OC` (stereo not drawn), for which the GI50 in test [1], in test [2], in [3], in [4], in test [5] and in test [6] was > 10 µM (inactive) in each case. In addition, the GI50 in test [7] is > 10 µM (inactive); in test [8], 0.975 µM (active); in [9], > 10 µM (inactive); in test [10], > 10 µM (inactive); in [11], > 10 µM (inactive); in test [12], > 10 µM (inactive). Further, the GI50 in [13], in test [14], in test [15], in test [16], in test [17] and in test [18] was > 10 µM (inactive) throughout.

Take `O=C1NC(Nc2ccccc2)=NC(C(F)(F)F)(C(F)(F)F)N1`: the GI50 in test [1] is 40.9 µM (inactive); in test [2], 48.6 µM (inactive); in [3], 38.4 µM (inactive); in test [4], 46.7 µM (inactive); in test [5], 31.6 µM (inactive); in [6], 20.7 µM (inactive). Besides, the GI50 in test [7] was 56.2 µM (inactive); in test [8], 54 µM (inactive); in test [9] it was 37.2 µM (inactive); in [10], 57.1 µM (inactive); in test [11], 54.5 µM (inactive); in test [12] it was 32.8 µM (inactive). Further, the GI50 in test [13] was 74.5 µM (inactive); in [14], 19.9 µM (inactive); in [15], 64 µM (inactive); in test [16] it was 36.6 µM (inactive); in test [17], 40.1 µM (inactive); in [18] it was 50.4 µM (inactive).

On to `O=C1Nc2c(Cl)cc(Cl)cc2/C1=N/N=C/c1ccccc1O`, for which the GI50 in [1] is 29.2 µM (inactive); in test [2], 21.5 µM (inactive); in test [3], 11.5 µM (inactive); in test [4], 17.9 µM (inactive); in test [5], 21.1 µM (inactive); in test [6], 27.1 µM (inactive). Also, the GI50 is 20.4 µM (inactive) in test [7]; 26.1 µM (inactive) in test [8]; 16.3 µM (inactive) in test [9]; 19.8 µM (inactive) in test [10]; 20.7 µM (inactive) in [11]; 14.7 µM (inactive) in [12]. The GI50 in test [13] was 20.6 µM (inactive); in [14] it was 19.5 µM (inactive); in test [15], 30.6 µM (inactive); in test [16], 18.3 µM (inactive); in [17], 16.3 µM (inactive); in [18] it was 17.2 µM (inactive).

For `O=[N+]([O-])c1c(F)c(F)c2c(c1F)N(CCCCCl)c1ccccc1S2`, the GI50 was 14.4 µM (inactive) in test [1]; 2.38 µM (inactive) in [2]; 21.7 µM (inactive) in test [3]; 2.86 µM (inactive) in [4]; 2.44 µM (inactive) in test [5]; 16.4 µM (inactive) in test [6]. In addition, the GI50 is 2.54 µM (inactive) in test [7]; 2.27 µM (inactive) in test [8]; 1.58 µM (inactive) in test [9]; 7.89 µM (inactive) in test [10]; 2.77 µM (inactive) in test [11]; 5.01 µM (inactive) in test [12]. Moreover, the GI50 was 17.2 µM (inactive) in test [13]; 3.63 µM (inactive) in [14]; 19.7 µM (inactive) in [15]; 7.5 µM (inactive) in [16]; 1.89 µM (inactive) in [17]; 13.9 µM (inactive) in test [18].

Take `CC(C)Oc1cccc(N2C(Nc3ccccc3)=Nc3ccncc3S2(=O)=O)c1`: the GI50 in test [1] was 20.4 µM (inactive); in test [2], 7.55 µM (inactive); in test [3] it was 40.5 µM (inactive); in test [4], 1.69 µM (inactive); in test [5] it was 0.41 µM (active); in test [6], 16.2 µM (inactive). Further, the GI50 in test [7] is 12.2 µM (inactive); in test [8] it was 25.4 µM (inactive); in test [9] it was 17.7 µM (inactive); in test [10], 15.2 µM (inactive); in test [11], > 100 µM (inactive); in test [12], 13.3 µM (inactive). Further, the GI50 is 23.8 µM (inactive) in [13]; 7.01 µM (inactive) in test [14]; 44 µM (inactive) in [15]; 30.8 µM (inactive) in test [16]; 10.9 µM (inactive) in test [17]; 19.9 µM (inactive) in test [18].

For the compound `O=[N+]([O-])c1ccc2sc(/C=N/c3cnccn3)cc2c1`, the GI50 in [1] was 64.9 µM (inactive); in test [2], 13.7 µM (inactive); in test [3], 39.1 µM (inactive); in test [4], 18.7 µM (inactive); in test [5], 14.2 µM (inactive); in test [6], 60.1 µM (inactive). For the same compound, the GI50 in [7] is 39.2 µM (inactive); in test [8] it was 58.3 µM (inactive); in test [9], 22.8 µM (inactive); in test [10], 23.7 µM (inactive); in test [11], 10.7 µM (inactive); in [12] it was 31 µM (inactive). The GI50 was 31.6 µM (inactive) in test [13]; 23.2 µM (inactive) in test [14]; 30.4 µM (inactive) in test [15]; 45.6 µM (inactive) in [16]; 14.5 µM (inactive) in [17]; 17.1 µM (inactive) in [18].

As for `COC(=O)Cc1cccc2c1CCC2=O`, the GI50 in [1], in [2], in test [3], in test [4], in test [5] and in test [6] was > 100 µM (inactive) each time. Further, the GI50 in [7], in test [8], in test [9], in test [10], in test [11] and in test [12] was > 100 µM (inactive) each time. Further, the GI50 in test [13], in [15], in test [16], in [17] and in test [18] was > 100 µM (inactive) throughout.

With `O=C(Nc1nc2ccccc2s1)c1cc([N+](=O)[O-])ccc1Cl`, the GI50 in [1] was 6.17 µM (inactive); in test [2], 0.0107 µM (active); in [3], 10.1 µM (inactive); in test [4] it was 12.6 µM (inactive); in test [5] it was 1.78 µM (inactive); in test [6], 5.89 µM (inactive). Further, the GI50 in [7] is 5.47 µM (inactive); in test [9], 3.44 µM (inactive); in [10], > 55.1 µM (inactive); in [11], 2.81 µM (inactive); in test [12], 1.91 µM (inactive); in [13], 4.73 µM (inactive). Moreover, the GI50 is 13.2 µM (inactive) in test [14]; 16 µM (inactive) in test [15]; 9.59 µM (inactive) in test [16]; 1.54 µM (inactive) in test [17]; 7.5 µM (inactive) in test [18].

On to `Oc1ccc(/C=C/c2cc(O)cc3c2C(c2cc(O)cc(O)c2)C(c2ccc(O)c(O)c2)O3)cc1` (stereo not drawn), for which the GI50 in test [1] is 45.6 µM (inactive); in [2], 8.34 µM (inactive); in test [3], 25.3 µM (inactive); in test [4] it was 25.4 µM (inactive); in [5] it was 27.1 µM (inactive); in test [6], 37.1 µM (inactive). Further, the GI50 in test [7] was 17.6 µM (inactive); in test [8], 31.4 µM (inactive); in test [9], 27 µM (inactive); in [10], 29 µM (inactive); in test [11] it was 11.6 µM (inactive); in test [13], 34.4 µM (inactive). Further, the GI50 in [14] was 28.4 µM (inactive); in test [15], 32.5 µM (inactive); in test [16], 17.6 µM (inactive); in test [17] it was 17.6 µM (inactive); in [18], 18.2 µM (inactive).

As for `CC1=NNC(=S)NCCCN2CCN(CCCNC(=S)NN=C(C)C=NNC(=S)NCCCN3CCN(CCCNC(=S)NN=C1)CC3)CC2`, the GI50 in test [1], in test [2], in [3], in test [4], in test [5] and in test [6] was > 100 µM (inactive) in each case. The GI50 in [7], in test [8], in test [9], in test [10], in test [11] and in [13] was > 100 µM (inactive) each time. Also, the GI50 in test [14], in [15], in [16], in test [17] and in test [18] was > 100 µM (inactive) throughout.

Turning to `COC(=O)C1(Cc2ccccc2)Cc2c(C)ccc(C)c2C1=O` (stereo not drawn), the GI50 is 11.1 µM (inactive) in [1]; 34.8 µM (inactive) in test [2]; 4.69 µM (inactive) in test [3]; 28 µM (inactive) in test [4]; 20.2 µM (inactive) in [5]; 20.1 µM (inactive) in test [6]. Further, the GI50 in test [7] was 19.8 µM (inactive); in test [8], 36.7 µM (inactive); in test [9], 17.2 µM (inactive); in [10], 15.7 µM (inactive); in [11], 18.7 µM (inactive); in [12], 31.9 µM (inactive). Moreover, the GI50 was 39.9 µM (inactive) in [13]; 35.3 µM (inactive) in test [15]; 47.8 µM (inactive) in test [16]; 23.9 µM (inactive) in [17]; 11.5 µM (inactive) in [18].
